Source: US12617790B2, “Mitragynine analogs and uses thereof” (Memorial Sloan-Kettering Cancer Center, priority 2015, dated 2026)

Experiments:
[1] = biological target: T1, KOR-1 (Mus musculus, UniProt P33534); test: Competition binding against 125I-IBNtxA in KOR-1/CHO membranes; conditions: 125I-IBNtxA (0.1 nM), CHO membranes, cloned mouse receptor; read-out: Affinity (Ki nM) KOR-1
T1 construct: expressed in transfected cells; host or cells: CHO

[2] = biological target: T2, MOR-1 (Mus musculus, UniProt P42866); test: [35S]GTPγS functional assay, MOR-1 transfected cell membranes; format: biochemical; set-up: Emax: dose or concentration left out as unconfirmed; conditions: for EC50: agonist stimulation of [35S]GTPγS binding, read-out: MOR-1 EC50; for Emax: read-out: MOR-1 Emax (%)
T2 construct: expressed in transfected cells; host or cells: CHO

[3] = biological target: T2, MOR-1; test: Competition binding against 125I-IBNtxA in MOR-1/CHO membranes
[4] = test system: CD1 mice; test: Radiant heat tail flick analgesia, sc, CD1 mice; format: in vivo; conditions: Mus musculus, 0.25 h, ED50, cumulative dose-response, tail flick 15 min after sc dose
[5] = biological target: T3, DOR-1 (Mus musculus, UniProt P32300); test: Competition binding against 125I-IBNtxA in DOR-1/CHO membranes; conditions: 125I-IBNtxA (0.1 nM), CHO membranes, cloned mouse receptor; read-out: Affinity (Ki nM) DOR-1
T3 construct: expressed in transfected cells; host or cells: CHO

[6] = biological target: T3, DOR-1; test: [35S]GTPγS functional assay, DOR-1 transfected cell membranes; format: biochemical; conditions: for EC50: agonist stimulation of [35S]GTPγS binding
[7] = test system: CD1 mice; test: Respiratory depression assessment (MouseOx pulse oximeter breath rate)
[8] = test system: CD1 mice; test: Radiant heat tail flick analgesia, icv, CD1 mice; format: in vivo, mouse; conditions: ED50, cumulative dose-response, tail flick 15 min after icv dose
[9] = test system: CD1 male mice; test: Tolerance study, chronic twice daily dosing, tail flick; conditions: Mus musculus, sc, 0 h, read-out: analgesic ED50, naïve (day 0)
[10] = biological target: T1, KOR-1; test: [35S]GTPγS functional assay, KOR-1 transfected cell membranes; format: biochemical; conditions: for IC50: antagonism of 100 nM U50,488H, read-out: KOR-1 IC50

## CC[C@@H]1CN2CC[C@]3(Nc4cccc(O)c4C3=O)C2C[C@@H]1/C(=C\OC)C(=O)OC (stereo partly drawn) [VM1507, (E)-methyl 2-((1'S,6'S,7'S)-6′-ethyl-4-hydroxy-3-oxo-3′,5′,6′,7′,8′,8a′-hexahydro-2′H-spiro[indoline-2,1′-indolizine]-7′-yl)-3-methoxyacrylate]
[1]
  Ki: 170 nM
[2]
  EC50: 2 nM
  Emax: 124%
[3]
  Ki: 1.4 nM
[4]
  ED50: 0.18 mg/kg
[5]
  Ki: 6.1 nM
[6]; antagonism of 100 nM DPDPE, read-out: DOR-1 IC50
  IC50: 293 nM

## CN1CC[C@]23c4c5ccc(O)c4O[C@H]2[C@@H](O)C=C[C@H]3[C@H]1C5 [morphine, reference compound]
[7]; FIG. 8C: VM1501 2.5 mg/kg sc (5x ED50), morphine 10 mg/kg, 50 min post-injection
  respiratory rate: caused respiratory depression
[7]; FIG. 12D, 2x antinociceptive ED50: VM1502 1.2 mg/kg sc, morphine 5 mg/kg
  respiratory rate: caused respiratory depression
[7]; FIG. 12D, 5x antinociceptive ED50: VM1502 3 mg/kg sc, morphine 10 mg/kg
  respiratory rate: caused respiratory depression
[7]; FIG. 14, 5x antinociceptive ED50: VM1502 3.75 mg/kg sc, VM1512 5.0 mg/kg sc, morphine 10 mg/kg
  respiratory rate: caused respiratory depression
[8]
  Analgesia icv: 0.53 µg
[4]
  ED50: 4.6 mg/kg
[9]
  ED50: 2 mg/kg

## Oc1ccc2c3c1O[C@H]1c4[nH]c5c(c4C[C@@]4(O)[C@@H](C2)N(CC2CC2)CC[C@]314)C[C@@]1(O)[C@H]2Cc3ccc(O)c4c3[C@@]1(CCN2CC1CC1)[C@H]5O4 [norBNI, norbinaltorphimine, reference compound]
[1]
  Ki: 0.23 nM
[10]
  IC50: 2.9 nM

## CC[C@@H]1CN2CCC3(Nc4c(-c5ccoc5)ccc(OC)c4C3=O)C2C[C@@H]1/C(=C\OC)C(=O)OC (stereo partly drawn) [VM1514, Methyl (E)-2-((6'S,7'S)-6′-ethyl-7-(furan-3-yl)-4-methoxy-3-oxo-2′,3′,6′,7′,8′,8a′-hexahydro-5′H-spiro[indoline-2,1′-indolizin]-7′-yl)-3-methoxyacrylate]
[1]
  Ki: 119 nM
[10]; agonist stimulation of [35S]GTPγS binding
  EC50: 40 nM
[2]
  EC50: > 1000 nM
[3]
  Ki: 41 nM
[5]
  Ki: 40 nM
[6]
  EC50: 244 nM

## CC[C@@H]1CN2CC[C@@]3(O)C(=Nc4ccccc43)[C@@H]2C[C@@H]1/C(=C\OC)C(=O)OC [VM1522, Methyl (E)-2-((2S,3S,7aS,12bS)-3-ethyl-7a-hydroxy-1,2,3,4,6,7,7a,12b-octahydroindolo[2,3-a]quinolizin-2-yl)-3-methoxyacrylate]
[1]
  Ki: 781 nM
[8]
  Analgesia icv: 0.1 µg
[2]
  EC50: 34 nM
  Emax: 116%
[3]
  Ki: 23 nM
[5]
  Ki: 147 nM

## CC[C@@H]1CN2CC[C@]3(Nc4cccc(OC(C)=O)c4C3=O)C2C[C@@H]1/C(=C\OC)C(=O)OC (stereo partly drawn) [VM1510, (E)-methyl 2-((1'S,6'S,7'S)-4-acetoxy-6′-ethyl-3-oxo-3′,5′,6′,7′,8′,8a′-hexahydro-2′H-spiro[indoline-2,1′-indolizine]-7′-yl)-3-methoxyacrylate]
[1]
  Ki: 31 nM
[2]
  EC50: 3.9 nM
  Emax: 120%
[3]
  Ki: 2.5 nM
[4]
  ED50: 0.38 mg/kg
[5]
  Ki: 20 nM

## CC[C@@H]1CN2CC[C@]3(Nc4cccc(-c5ccccc5)c4C3=O)C2C[C@@H]1/C(=C\OC)C(=O)OC (stereo partly drawn) [VM1511, (E)-methyl 2-((1'S,6'S,7'S)-6′-ethyl-3-oxo-4-phenyl-3′,5′,6′,7′,8′,8a′-hexahydro-2′H-spiro[indoline-2,1′-indolizine]-7′-yl)-3-methoxyacrylate]
[1]
  Ki: 51 nM
[10]
  IC50: 171 nM
[2]
  EC50: 1.4 nM
  Emax: 123%
[3]
  Ki: 0.91 nM
[4]
  ED50: 1 mg/kg
[5]
  Ki: 0.8 nM
[6]
  EC50: 0.83 nM
[6]; percent maximal stimulation relative to DPDPE, read-out: DOR-1 Emax (value in parentheses after EC50)
  Emax: 89%
